Experimental data published in PMC7373994 (2020).
Blank lines part the entries; values can stand above or below the compound they belong to.

What was measured:
Test in all cases: in-line probing
[1] = tested on: 53 tauA (RNA, riboswitch) GGAGAGUGAGUAGAAGCGGUCAGUGCAGGCAGCUGCGCGGGACAUUGCUCAGCAA; conditions: 100 mM KCl, 20 mM MgCl2, 100 mM Tris-HCl pH 8.3, 19°C; for binding: tested up to 1 mM, 53 or 68 tauA construct not specified; for KD: apparent
[2] = tested on: 68 tauA M1 (A12U) (RNA, riboswitch) GGAGAGUGAGUAGUAGCGGUCAGUGCAGGCAGCUGCGCGGGACAUUGCUCAGCAACCAUUUCGCGGUUCA; conditions: 100 mM KCl, 20 mM MgCl2, 100 mM Tris-HCl pH 8.3, 19°C
[3] = tested on: 68 tauA M2 (G38C) (RNA, riboswitch) GGAGAGUGAGUAGAAGCGGUCAGUGCAGGCAGCUGCGCGCGACAUUGCUCAGCAACCAUUUCGCGGUUCA; conditions: 100 mM KCl, 20 mM MgCl2, 100 mM Tris-HCl pH 8.3, 19°C
[4] = tested on: 68 tauA (RNA, riboswitch) GGAGAGUGAGUAGAAGCGGUCAGUGCAGGCAGCUGCGCGGGACAUUGCUCAGCAACCAUUUCGCGGUUCA; conditions: 100 mM KCl, 20 mM MgCl2; 100 mM Tris-HCl pH 8.3, 19°C; qualitative, wild type compared with mutants
[5] = tested on: 68 tauA M3 (G6C, A7U) (RNA, riboswitch) GGAGAGUCUGUAGAAGCGGUCAGUGCAGGCAGCUGCGCGGGACAUUGCUCAGCAA; conditions: 100 mM KCl, 20 mM MgCl2; 100 mM Tris-HCl pH 8.3, 19°C

- binding [1]: no
SMILES: Cn1c(=O)[nH]c2[nH]c(=O)[nH]c(=O)c21

- binding [1]: no
SMILES: Cn1c(=O)[nH]c(=O)c2[nH]c(=O)[nH]c21

- KD ([1]; Figure S2C legend prints 4.3 µM instead): ~ 25 µM
- binding ([2]; tested up to 1000 µM): no
- binding ([3]; tested up to 1000 µM): no
SMILES: O=c1[nH]c(=O)c2[nH]c(=O)[nH]c2[nH]1

- binding [1]: no
SMILES: O=c1[nH]cnc2c1ncn2[C@@H]1O[C@H](CO)[C@@H](O)[C@H]1O

- binding [1]: no
SMILES: Cn1c(=O)[nH]c2c(=O)[nH]c(=O)[nH]c21

- KD ([1]; 36 h, two repeats): ~ 3.7 µM
- binding [4]: yes
- binding [2]: no
- binding ([3]; artifact modulation at highest concentration): no
- binding [5]: no
SMILES: O=c1[nH]c(=O)c2[nH]cnc2[nH]1
